Measured values published in US12171766B2, “Methods of treating patients suffering from brain injury and methods of increasing the value of the extended Glasgow Outcome Scale of patients suffering from brain injury” (VERINOS OPERATIONS GMBH, priority 2021, dated 2024).

Assays:
[1] = test system: Moderate and Severe Traumatic Brain Injury; conditions: cited from earlier work
[2] = NOSTRA phase III trial: exposure control (pharmacokinetics), samples after end of infusion and 12 hours after end of infusion; assay type: in vivo, human; conditions: exposure control samples; no utilizable values for parent
Description: An exposure control was performed with samples collected after end of infusion and 12 hours after end of infusion. Due to the high sensibility of Ronopterin to oxidation, no utilizable values could be obtained for Ronopterin and, therefore, the first metabolite, 4-amino-dihydrobiopterin, was used as a surrogate. The mean absolute concentration for the first metabolite of Ronopterin was 1071 ng/mL at the end of the infusion and 476 ng/mL 12 hours later (56% elimination). The mean absolute value for the second Ronopterin metabolite was 52 ng/mL at the end of the infusion and 37 ng/mL 12 hours after end of infusion.

[3] = NOSTRA phase III trial: safety and adverse event analyses; assay type: in vivo
Description: Safety analyses was performed using standard descriptive methods.
The total number of treatment-emergent adverse events (TEAE) and the total number of patients with TEAEs, the total number of TEAEs related to the study drug (certain, probable, possible), the total number of patients with TEAEs related to the study drug, the total number of TEAEs and the total number of patients with serious TEAEs, the total number of patients with TEAEs leading to discontinuation of study treatment and the total number of patients with TEAEs leading to death were summarised by treatment arm.

[4] = may be due to over-reporting of some centres

For `CC(O)C(O)C1CNc2nc(N)nc(N)c2N1` [Ronopterin, 4-Amino-(6R,S)-5,6,7,8-tetrahydro-L-biopterin], the “effect of infusion during the initial 12 hours after TBI” value ([1]; Phase IIa trial [Stover]) is listed as “benefits”, the “effect in phase II clinical trial” value ([1]; Stover et al. 2014 (NOSTRA phase IIa)) is listed as “beneficial” and the sensibility to oxidation [2] is listed as “high”. The “number of renal AEs” value ([3]; Ronopterin:placebo 11:3) was 11, the “tolerability of study treatment” value ([3]; TBI patients, 17 mg/kg over 48 hours) was “well-tolerated” and the “number of related AE/SAEs” value ([3]; between the groups (Ronopterin, placebo)) was “low and comparable”. For the same compound, the “number of adverse events (AEs) and serious adverse events (SAEs) compared to placebo” value ([3]; in vivo) was “slightly higher”, the “ICP increased, number of patients” value [3, 4] was 27 patients and the “ICP increased, proportion of patients” value [3, 4] was 23.9%.
